Assay results from US12590066B2, “Fused-heterocyclyl-carbonohydrazonoyl dicyanide compounds and use thereof” (KOREA INSTITUTE OF SCIENCE AND TECHNOLOGY, priority 2020, dated 2026).

Legend:
[1] = target: T1, tau protein (Homo sapiens, UniProt P10636); test: Tau-BiFC cell model, inhibition of Forskolin-induced tau protein aggregation; type: cell-based; details: Forskolin 30 μM, 48 hours; for Tau BiFC in cells Response (% @10 μM): 10 μM compound, Forskolin-only group = 100% tau protein-aggregated state; for IC50: tau-BiFC cells
T1 construct: BiFC fluorescent-protein fragments (type and halves not specified); expressed in transfected cells
T1 sequence (P10636 1-441 isoform P10636-8): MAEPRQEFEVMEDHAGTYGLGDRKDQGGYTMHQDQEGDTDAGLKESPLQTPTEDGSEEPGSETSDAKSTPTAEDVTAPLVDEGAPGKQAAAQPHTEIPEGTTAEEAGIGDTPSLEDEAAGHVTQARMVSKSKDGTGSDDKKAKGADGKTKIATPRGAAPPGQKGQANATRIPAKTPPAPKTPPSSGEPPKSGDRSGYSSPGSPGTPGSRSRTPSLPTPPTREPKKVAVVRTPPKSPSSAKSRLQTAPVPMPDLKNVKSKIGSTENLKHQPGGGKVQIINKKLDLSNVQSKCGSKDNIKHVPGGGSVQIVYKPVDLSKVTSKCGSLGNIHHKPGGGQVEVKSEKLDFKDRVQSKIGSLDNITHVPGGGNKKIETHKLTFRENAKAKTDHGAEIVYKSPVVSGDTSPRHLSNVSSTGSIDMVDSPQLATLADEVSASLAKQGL
Summary of the method: (§1)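 Tau-BiFC cells co-treated 48 h with 30 μM forskolin and compounds (1, 3, 10 μM screen; 0.01–30 μM dose-response). BiFC fluorescence normalized to forskolin-only (100% aggregation) minus untreated gives aggregation inhibition and IC50; viability as Hoechst-stained nuclei count relative to forskolin-only.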

[2] = test system: Tau-BiFC cells; test: Cell viability (stained nuclei count) in Tau-BiFC cells; type: cell-based; details: 10 μM compound, 48 hours; Forskolin-only group = 100% cell viability
Summary of the method: as §1

[3] = Liver microsome stability; type: in vitro ADME; details: 1 μM compound, 37° C., 30 minutes, NADPH; for Dog (%) amount of substrate remaining after the reaction: dog liver microsomes 0.25 mg/mL; for Human (%) amount of substrate remaining after the reaction: human liver microsomes 0.25 mg/mL; for Mouse (%) amount of substrate remaining after the reaction: mouse liver microsomes 0.25 mg/mL; for Rat (%) amount of substrate remaining after the reaction: rat liver microsomes 0.25 mg/mL
Method: The stability of liver microsomes due to the compounds prepared according to Examples 1 to 57 was confirmed. Specifically, four types of liver microsomes (human, dog, rat, and mouse, each 0.25 mg/mL), a 0.1 M phosphate buffer solution (pH 7.4), and each of the compounds at a concentration of 1 μM were mixed and pre-cultured at 37° C. for 5 minutes and further cultured at 37° C. for 30 minutes together with an NADPH generation system solution added thereto. Thereafter, the reaction was terminated by adding an acetonitrile solution containing an internal standard material (chloropropamide) and centrifuged for 5 minutes (14,000 rpm, 4° C.), and then a supernatant was injected into an LC-MS/MS system for analysis of substrate drugs to thereby evaluate metabolic stability due to 8 types of compounds.
The amount of the substrate remaining after the reaction was analyzed using the Shimadzu Nexera XR system and TSQ Vantage (Thermo). In an HPLC column, Kinetex XB-C18 (2.1 mm×100 mm, particle size of 2.6 μm; Phenomenex, USA) was used, and mobile phases were (A) distilled water containing 0.1% formic acid and (B) acetonitrile containing 0.1% formic acid. Analyst software (version 1.6.3) and Xcalibur (version 1.6.1) were used for data analysis.

Row | Compound | Tau BiFC in cells Response (% @10 μM) [1] | IC50 [1] | Cell viability (% @10 μM) [2] | Dog (%) amount of substrate remaining after the reaction [3] | Human (%) amount of substrate remaining after the reaction [3] | Mouse (%) amount of substrate remaining after the reaction [3] | Rat (%) amount of substrate remaining after the reaction [3]
1 | Cn1c(=O)n(C)c2c(Cl)cc(NN=C(C#N)C#N)cc21 [Compound 11, (7-chloro-1,3-dimethyl-2-oxo-2,3-dihydro-1H-benzo[d]imidazol-5-yl)carbonohydrazonoyl dicyanide] | 0% | 100 nM | 142.3% | 63.1% | 96.1% | 63.9% | 82.8%
2 | Cn1c(=O)n(C)c2ncc(NN=C(C#N)C#N)cc21 [Compound 12, (1,3-dimethyl-2-oxo-2,3-dihydro-1H-imidazo[4,5-b]pyridin-6-yl)carbonohydrazonoyl dicyanide] | 0% | 870 nM | 145.2% | >100% | >100% | >100% | 94.9%
3 | N#CC(C#N)=NNc1ccc2[nH]c(=O)sc2c1 [Compound 13, (2-oxo-2,3-dihydrobenzo[d]thiazol-6-yl)carbonohydrazonoyl dicyanide] | 0.8% | 200 nM | 115.8% | >100% | >100% | >100% | >100%
4 | Cn1c(=O)sc2cc(NN=C(C#N)C#N)ccc21 [Compound 14, (3-methyl-2-oxo-2,3-dihydrobenzo[d]thiazol-6-yl)carbonohydrazonoyl dicyanide] | 0% | 60 nM | 129.1% | 73.3% | 98.3% | 59.6% | 87.1%
5 | N#CC(C#N)=NNc1ccc2[nH]c(=O)oc2c1 [Compound 15, (2-oxo-2,3-dihydrobenzo[d]oxazol-6-yl)carbonohydrazonoyl dicyanide] | 5.5% | 8400 nM | 127.7% | 97.1% | 74.2% | >100% | 92.5%
6 | Cn1c(=O)oc2cc(NN=C(C#N)C#N)ccc21 [Compound 16, (3-methyl-2-oxo-2,3-dihydrobenzo[d]oxazol-6-yl)carbonohydrazonoyl dicyanide] | 0% | 600 nM | 129.8% | 95.7% | 98.9% | 81% | 89.1%
7 | Cn1c(=O)[nH]c2cc(NN=C(C#N)C#N)ccc21 [Compound 17, (1-methyl-2-oxo-2,3-dihydro-1H-benzo[d]imidazol-5-yl)carbonohydrazonoyl dicyanide] | 0% | 1200 nM | 94.38% | >100% | >100% | 95.7% | >100%
8 | CC(C)n1c(=O)sc2cc(NN=C(C#N)C#N)ccc21 [Compound 18, (3-isopropyl-2-oxo-2,3-dihydrobenzo[d]thiazol-6-yl)carbonohydrazonoyl dicyanide] | 0% | 40 nM | 110.7% | 93.8% | 85.1% | 71.3% | 70.8%
9 | N#CC(C#N)=NNc1ccc2c(c1)sc(=O)n2C(F)F [Compound 19, (3-(difluoromethyl)-2-oxo-2,3-dihydrobenzo[d]thiazol-6-yl)carbonohydrazonoyl dicyanide] | 0% | 100 nM | 125.3% | 80.4% | 99.7% | 58.7% | 69.7%
10 | CC(C)n1c(=O)oc2cc(NN=C(C#N)C#N)ccc21 [Compound 20, (3-isopropyl-2-oxo-2,3-dihydrobenzo[d]oxazol-6-yl)carbonohydrazonoyl dicyanide] | 0% | 100 nM | 106% | 95.6% | 98.1% | 73.1% | 73.3%
11 | N#CC(C#N)=NNc1ccc2c(c1)oc(=O)n2C(F)F [Compound 21, (3-(difluoromethyl)-2-oxo-2,3-dihydrobenzo[d]oxazol-6-yl)carbonohydrazonoyl dicyanide] | 0% | 600 nM | 135% | 72.1% | 73.9% | 71.8% | 79.8%
12 | Cn1c(=O)n(C)c2cc(NN=C(C#N)C#N)ccc21 [Compound 22, (1,3-dimethyl-2-oxo-2,3-dihydro-1H-benzo[d]imidazol-5-yl)carbonohydrazonoyl dicyanide] | 0% | 200 nM | 120.7% | 92.2% | 80.6% | 63.1% | 91.6%
13 | CC(C)n1c(=O)n(C(C)C)c2cc(NN=C(C#N)C#N)ccc21 [Compound 23, (1,3-diisopropyl-2-oxo-2,3-dihydro-1H-benzo[d]imidazol-5-yl)carbonohydrazonoyl dicyanide] | 0% | 100 nM | 117% | 86.1% | 83.1% | 72.4% | 77.7%
14 | N#CC(C#N)=NNc1ccc2c(c1)n(C(F)F)c(=O)n2C(F)F [Compound 24, (1,3-bis(difluoromethyl)-2-oxo-2,3-dihydro-1H-benzo[d]imidazol-5-yl)carbonohydrazonoyl dicyanide] | 0% | 200 nM | 125.1% | 88.1% | 88.2% | 84.1% | 86.8%
